Assay results: patent US11555821B2, “CA IX-NIR dyes and their uses” (On Target Laboratories, Inc., priority 2016, dated 2023)

Assays:
[1] = test system: SKRC52 human renal tumor xenograft; experiment: Whole body fluorescence imaging of SKRC52 human renal tumor xenograft bearing mouse (IVIS imager); assay type: in vivo; details: 10 nmol, within 2-24 hours after administering to the animal
Experimental: SKRC52 human renal tumor xenograft bearing mouse was injected with 10 nmol of 54 and imaged with IVIS imager (ex=745 nm, em=ICG, exposure time=1 s) at different time intervals.
SKRC52 human renal tumor xenograft bearing mouse was injected with 10 nmol of 55 and imaged with IVIS imager (ex=745 nm, em=ICG, exposure time=1 s) at different time intervals.
SKRC52 human renal tumor xenograft bearing mouse was injected with 10 nmol of 60 and imaged with IVIS imager (ex=745 nm, em=ICG, exposure time=[…]) at different time intervals.
SKRC52 human renal tumor xenograft bearing mouse was injected with 10 nmol of 61 and imaged with IVIS imager (ex=745 nm, em=ICG, exposure time=[…]) at different time intervals.
SKRC52 human renal tumor xenograft bearing mouse was injected with 10 nmol of 62 and imaged with IVIS imager (ex=745 nm, em=ICG, exposure time=1 s) at different time intervals.
SKRC52 human renal tumor xenograft bearing mouse was injected with 10 nmol of 65 and imaged with IVIS imager (ex=745 nm, em=ICG, exposure time=1 s) at different time intervals.
SKRC52 human renal tumor xenograft bearing mouse was injected with 10 nmol of 69 and imaged with IVIS imager (ex=745 nm, em=ICG, exposure time=1 s) at different time intervals.
SKRC52 human renal tumor xenograft bearing mouse was injected with 10 nmol of 70 and imaged with IVIS imager (ex=745 nm, em=ICG, exposure time=1 s) at different time intervals.
SKRC52 human renal tumor xenograft bearing mouse was injected with 10 nmol 72 and imaged with IVIS imager (ex=745 nm, em=ICG, exposure time=1 s) at different time intervals
SKRC52 human renal tumor xenograft bearing mouse was injected with 10 nmol of 76 and imaged with IVIS imager (ex=745 nm, em=ICG, exposure time=1 s) at different time intervals
SKRC52 human renal tumor xenograft bearing mouse was injected with 10 nmol of 77 and imaged with IVIS imager (ex=745 nm, em=ICG, exposure time=1 s) at different time intervals
SKRC52 human renal tumor xenograft bearing mouse was injected with 10 nmol of 80 and imaged with IVIS imager (ex=745 nm, em=ICG, exposure time=1 s) at different time intervals
SKRC52 human renal tumor xenograft bearing mouse was injected with 10 nmol of 81 and imaged with IVIS imager (ex=745 nm, em=ICG, exposure time=1 s) at different time intervals
SKRC52 human renal tumor xenograft bearing mouse was injected with 10 nmol of 85 and imaged with IVIS imager (ex=745 nm, em=ICG, exposure time=1 s) at different time intervals
SKRC52 human renal tumor xenograft bearing mouse was injected with 10 nmol of 86 and imaged with IVIS imager (ex=745 nm, em=ICG, exposure time=1 s) at different time intervals
SKRC52 human renal tumor xenograft bearing mouse was injected with 10 nmol of 87 and imaged with IVIS imager (ex=745 nm, em=ICG, exposure time=1 s) at different time intervals
SKRC52 human renal tumor xenograft bearing mouse was injected with 10 nmol of 88 and imaged with IVIS imager (ex=745 nm, em=ICG, exposure time=1 s) at different time intervals
SKRC52 human renal tumor xenograft bearing mouse was injected with 10 nmol of 89 and imaged with IVIS imager (ex=745 nm, em=ICG, exposure time=1 s) at different time intervals
SKRC52 human renal tumor xenograft bearing mouse was injected with 10 nmol of 90 and imaged with IVIS imager (ex=745 nm, em=ICG, exposure time=1 s) at different time intervals
SKRC52 human renal tumor xenograft bearing mouse was injected with 10 nmol of 93 and imaged with IVIS imager (ex=745 nm, em=ICG, exposure time=1 s) at different time intervals
SKRC52 human renal tumor xenograft bearing mouse was injected with 10 nmol of 95 and imaged with IVIS imager (ex=745 nm, em=ICG, exposure time=1 s) at different time intervals
SKRC52 human renal tumor xenograft bearing mouse was injected with 10 nmol of 99 and imaged with IVIS imager (ex=745 nm, em=ICG, exposure time=1 s) at different time intervals […]

[2] = test system: HT29 (a human colon cancer cell line) tumor xenograft; experiment: Whole body fluorescence imaging of HT29 tumor xenograft bearing mouse (IVIS imager); assay type: in vivo; details: 10 nmol
Experimental: HT29 (a human colon cancer cell line) tumor xenograft bearing mouse was injected with 10 nmol of 61 and imaged with IVIS imager (ex=745 nm, em=ICG, exposure time=1 s) at different time intervals.
(§1) HT29 (a human colon cancer cell line) and HCC827 (a human lung cancer cell line) tumor xenograft bearing mouse was injected with 10 nmol of 61 and imaged with IVIS imager (ex=745 nm, em=ICG, exposure time=1 s) at different time intervals.

[3] = test system: HCC827 (a human lung cancer cell line) tumor xenograft; experiment: Whole body fluorescence imaging of HCC827 tumor xenograft bearing mouse (IVIS imager); assay type: in vivo; details: 10 nmol
Experimental: HCC827 (a human lung cancer cell line) tumor xenograft bearing mouse was injected with 10 nmol of 61 and imaged with IVIS imager (ex=745 nm, em=ICG, exposure time=1 s) at different time intervals.
as §1

[4] = test system: SKRC52 xenografts; experiment: Fluorescence imaging of tumor accumulation of OTL410 in nude mice bearing SKRC52 xenografts (AMI imager); assay type: in vivo, mouse
Experimental: FIG. 49 illustrates the time course of tumor accumulation by OTL410 by fluorescence imaging of nude mice bearing SKRC52 xenografts. After intravenous administration of 1 nmol of the conjugate in 100 μl of 5% aqueous dextrose, mice were anesthetized by isoflurane right before collecting each image. Tumor accumulation is evident as early as 15 min after injection of the conjugate, reaching peak intensity by 4 h.
Mice were euthanized by CO2 inhalation 3 h after intravenous administration of indicated concentrations of the conjugate, and epifluorescence images were collected ex vivo (Ex=745 nm, Em=810 nm FOV=25, binning 2, lamp power=55%). Five mice/per group were used for doses 0.25 nmol to 20 nmol, and image of 1 mouse representing each dose is presented.
Tumor Implantation and imaging: For establishing subcutaneous tumors from SKRC52, HT29 and 22RV1 cells, female nude mice were inoculated subcutaneously with 5×10^6 cells in 150 μl of 50% matrigel on the flank. KB tumors were established by inoculating female nude mice subcutaneously with 1×10^6 KB cells in 100 μl of folate deficient RPMI 1640 media. MDA MB-231 tumors were established by inoculating female nude mice subcutaneously with 2×10^6 cells in 100 μl of RPMI 1640 media. Tumor sizes were measured using a digital calipers and tumor volumes were calculated using the formula (L/2)×W2 where L and W represent the length and width of the tumor. When the tumors reached desired size (500-700 mm3), mice were randomly assigned to groups of 4-5. Each mouse was injected with varying concentrations of OTL410 in 100 μl of 5% aqueous dextrose. For the time course study, mice were imaged under anesthesia at varying time points starting at 15 minutes and up to 24 h using a Spectral AMI imaging system (Spectral Instruments Imaging) using the imaging parameters t=1 sec, f stop=2, FOV=25, binning=2, and lamp power=55%. For the biodistribution studies, mice were euthanized at 3 h, 12 h or 24 h after injection of OTL410, and fluorescence images were collected ex vivo using the same instrument and imaging parameters described above. For quantification of tumor to background ratios, region of interest (ROI) was drawn for tumor and each tissue of interest and the total and mean fluorescence intensity were calculated using the proprietary software from Spectral Instruments. TBR for each organ and respective standard deviations were calculated using Excel software.

[5] = test system: CAIX expressing SKRC52 tumor; experiment: OTL410 fluorescence-guided resection of CAIX expressing SKRC52 tumor from nude mice; assay type: in vivo; details: 1 nmol/mouse, euthanized 24 h later
Experimental: OTL410 was administered at a dose of 1 nmol/mouse in 100 μl of 5% aqueous dextrose, and the mouse was euthanized 24 h later. FIG. 53A illustrates the image acquired after ex vivo whole-body fluorescence imaging and skin around the tumor was removed. FIG. 53B illustrates, guided by the fluorescence image, the image acquired after the tumor was resected.
(§2) Tumor Implantation and imaging: For establishing subcutaneous tumors from SKRC52, HT29 and 22RV1 cells, female nude mice were inoculated subcutaneously with 5×10^6 cells in 150 μl of 50% matrigel on the flank. […] Tumor sizes were measured using a digital calipers and tumor volumes were calculated using the formula (L/2)×W2 where L and W represent the length and width of the tumor. […] For the biodistribution studies, mice were euthanized at 3 h, 12 h or 24 h after injection of OTL410, and fluorescence images were collected ex vivo using the same instrument and imaging parameters described above. For quantification of tumor to background ratios, region of interest (ROI) was drawn for tumor and each tissue of interest and the total and mean fluorescence intensity were calculated using the proprietary software from Spectral Instruments. TBR for each organ and respective standard deviations were calculated using Excel software.

[6] = test system: KB, a derivative of HeLa cervical cancer cell line; experiment: OTL410 accumulation in KB tumor xenografts (AMI imager); assay type: in vivo; details: 2 nmol/mouse, 4 h
Experimental: (§3) FIGS. 54A and 54B illustrate KB, a derivative of HeLa cervical cancer cell line. FIGS. 54C and 54D illustrate MDA-MB-231, a triple negative breast cancer cell line. FIGS. 54E and 54F illustrate FaDu, a head & neck cancer cell line; and FIGS. 54G and 54H illustrate HT29, a colorectal cancer cell line. OTL410 was administered at a dose of 2 nmol/mouse in 100 μl of 5% aqueous dextrose, and the images were collected 4 h later using an AMI imager with the mice under anesthesia.
as §2

[7] = test system: MDA-MB-231, a triple negative breast cancer cell line; experiment: OTL410 accumulation in MDA-MB-231 tumor xenografts (AMI imager); assay type: in vivo; details: MDA-MB-231, 2 nmol/mouse, 4 h
Experimental: as §3, §2

[8] = test system: FaDu, a head & neck cancer cell line; experiment: OTL410 accumulation in FaDu tumor xenografts (AMI imager); assay type: in vivo; details: 2 nmol/mouse, 4 h
Experimental: as §3

[9] = test system: HT29, a colorectal cancer cell line; experiment: OTL410 accumulation in HT29 tumor xenografts (AMI imager); assay type: in vivo; details: HT29, 2 nmol/mouse, 4 h
Experimental: as §3, §2

[10] = test system: SKRC52 cells; experiment: Uptake of OTL410 by SKRC cells in vitro by fluorescence microscopy; assay type: cell-based, human; details: 100 nmols, 2 h
Experimental: SKRC52 cells were incubated with 100 nmols of OTL410 for 2 h, and fluorescence images were acquired after removing unbound conjugate, and washing cells 2× with media.
For competition studies, 50,000 SKRC cells were grown on 8 well glass bottom slides for 48 h. Spent media was removed, and the cells were incubated with 100 nmols of OTL410 in 500 μl of fresh media alone or in presence of 200× non-fluorescent ligand (i.e. OTL410 without the dye) in a cell culture incubator for 2 h. Cells were then washed 2× with 500 μl of media, and after the second step of washing, 500 μl of serum free media was added to the cells. These cells were then imaged using a Nikon wide-field microscope.

[11] = 1 nmol intravenous in 5% aqueous dextrose

Structure (SMILES)	whole-body imaging data [1]	accumulation in CA IX-negative tumor xenografts of colon cancer versus other healthy tissues [2]	accumulation in CA IX-negative tumor xenografts of lung cancer versus other healthy tissues [3]	dose dependence of accumulation in SKRC52 tumor xenografts ([4]; 0.25 nmol to 20 nmol intravenous, 3 h, ex vivo images)	time after injection at which tumor accumulation is evident [4, 11] [min]	time of peak tumor fluorescence intensity [4, 11] [h]	tumor fluorescence intensity at 8 h ([4]; 1 nmol intravenous, 8 h)	tumor fluorescence intensity maintained after 24 h ([4]; 1 nmol intravenous, 24 h)	fluorescence-guided tumor resection [5]	accumulation in tumor xenografts [6]	accumulation in tumor xenografts [7]	accumulation in tumor xenografts [8]	accumulation in tumor xenografts [9]	uptake by SKRC cells in vitro [10]
CC1(C)C(/C=C/C2=C(Oc3ccc(C[C@H](NC(=O)CCOCCOCCNC(=O)CCS(=O)(=O)c4c(F)c(F)c(S(N)(=O)=O)c(F)c4NC4CCCCCCC4)C(=O)O)cc3)C(=C/C=C3/N(CCCCS(=O)(=O)O)c4ccc(S(=O)(=O)O)cc4C3(C)C)/CCC2)=[N+](CCCCS(=O)(=O)[O-])c2ccc(S(=O)(=O)O)cc21 [Compound 61, 4-(2-((E)-2-((E)-2-(4-((S)-2-carboxy-16-((2-(cyclooctylamino)-3,5,6-trifluoro-4-sulfamoylphenyl)sulfonyl)-4,14-dioxo-7,10-dioxa-3,13-diazahexadecyl)phenoxy)-3-(2-((E)-3,3-dimethyl-5-sulfo-1-(4-sulfobutyl)indolin-2-ylidene)ethylidene)cyclohex-1-en-1-yl)vinyl)-3,3-dimethyl-5-sulfo-3H-indol-1-ium-1-yl)butane-1-sulfonate]	very good	selectively accumulated	selectively accumulated	–	–	–	–	–	–	–	–	–	–	–
CC1(C)C(/C=C/C2=C(Oc3ccc(C[C@H](NC(=O)CCOCCOCCNC(=O)CCCS(=O)(=O)c4c(F)c(F)c(S(N)(=O)=O)c(F)c4NC4CCCCCCC4)C(=O)O)cc3)C(=C/C=C3/N(CCCCS(=O)(=O)O)c4ccc(S(=O)(=O)O)cc4C3(C)C)/CCC2)=[N+](CCCCS(=O)(=O)[O-])c2ccc(S(=O)(=O)O)cc21 [OTL410]	–	–	–	dose dependent accumulation	≤ 15	≤ 4	No loss in fluorescence intensity	~80 % of peak intensity	complete removal of the tumor with no fluorescent cells left behind	tumor-specific accumulation	tumor-specific accumulation	tumor-specific accumulation	tumor-specific accumulation	uptake
